Reference: US20230407243A1, “GENETIC PLATFORM TO INVESTIGATE THE FUNCTIONS OF BACTERIAL DRUG EFFLUX PUMPS” (priority 2022, published 2023)
Like-named read-outs stand apart in the source and are kept apart here.

Experiments:
Format in all cases: cell-based, Escherichia coli
[1] = tested on: EKO-35 araC::macAB; assay: MIC susceptibility profiling, efflux platform; settings: for Fold change of MICs: EKO-35 araC::macAB compared to EKO-35; for Minimum Inhibitory Concentration, EKO-35 araC::macAB: Table 13B, non-porinated, technical duplicate
Outline: (§1)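 Each compound was serially diluted twofold, in duplicate, and challenged with a 1/2000 dilution of PBS-washed cells (OD600 ~1.0) in MHB II. Plates were shaken at 37 °C for 18 h and OD600 was read at room temperature, with the baseline subtracted.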

[2] = tested on: EKO-35 araC::mdtEF; assay: MIC susceptibility profiling, efflux platform; settings: for Fold change of MICs: EKO-35 araC::mdtEF compared to EKO-35; for Minimum Inhibitory Concentration, EKO-35 araC::mdtEF: Table 13A, non-porinated, technical duplicate
Outline: as §1

[3] = tested on: EKO-35 araC::emrAB; assay: MIC susceptibility profiling, efflux platform; settings: for Fold change of MICs: EKO-35 araC::emrAB compared to EKO-35; for Minimum Inhibitory Concentration, EKO-35 araC::emrAB: Table 13B, non-porinated, technical duplicate
Outline: as §1

[4] = tested on: EKO-35 araC::acrBD408A; assay: MIC susceptibility profiling, efflux platform; settings: for Fold change of MICs: EKO-35 araC::acrBD408A compared to EKO-35
Outline: as §1

[5] = tested on: EKO-35 araC::acrEF; assay: MIC susceptibility profiling, efflux platform; settings: for Fold change of MICs: EKO-35 araC::acrEF compared to EKO-35
Outline: as §1

[6] = tested on: EKO-35 araC::emrKY; assay: MIC susceptibility profiling, efflux platform; settings: for Fold change of MICs: EKO-35 araC::emrKY compared to EKO-35; for Minimum Inhibitory Concentration, EKO-35 araC::emrKY: Table 13B, non-porinated, technical duplicate
Outline: as §1

[7] = tested on: ΔtolC-Pore; assay: microbe, parasite or virus in culture; settings: for Minimum inhibitory concentration (MIC), Pore ΔtolC: Table 10, with pore; for Minimum inhibitory concentration (MIC), Pore ΔtolC / Minimum inhibitory concentration, ΔtolC-Pore: technical duplicate; for Minimum inhibitory concentration, ΔtolC-Pore: Table 14A, porinated
Outline: (§2)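 MIC values come from background-corrected OD600 readings (pre-incubation OD subtracted) after 18 h at 37 °C and 900 rpm in MHB II. Compounds were tested in duplicate as 2-fold dilutions. The inoculum came from 18 h LB cultures adjusted to OD600 ~1.0 and diluted 1/2000, and the pore-bearing strains were vancomycin-checked beforehand.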

[8] = tested on: wild-type (WT) K-12-Pore; assay: microbe, parasite or virus in culture; settings: for MIC: Escherichia coli; for Minimum inhibitory concentration (MIC), Pore K-12: Table 10, with pore; for Minimum inhibitory concentration (MIC), Pore K-12 / Minimum inhibitory concentration, K-12 (WT)-Pore: technical duplicate; for Minimum inhibitory concentration, K-12 (WT)-Pore: Table 14A, porinated
Outline: as §2

[9] = tested on: EKO-35 araC::acrD Pore; assay: MIC susceptibility profiling, porinated efflux platform; settings: for Fold changes of MICs: EKO-35 araC::acrD Pore compared to EKO-35-Pore; for Minimum inhibitory concentration, EKO-35 araC::acrD Pore: Table 14A, porinated, technical duplicate
Outline: as §2

[10] = tested on: EKO-35 araC::emrKY Pore; assay: as above; settings: for Fold changes of MICs: EKO-35 araC::emrKY Pore compared to EKO-35-Pore; for Minimum inhibitory concentration: EKO-35 araC::emrKY Pore, technical duplicate
Outline: as §2

[11] = tested on: EKO-35 araC::mdtBC Pore; assay: as above; settings: for Fold changes of MICs: EKO-35 araC::mdtBC Pore compared to EKO-35-Pore; for Minimum inhibitory concentration: EKO-35 araC::mdtBC Pore, technical duplicate
Outline: as §2

[12] = tested on: EKO-35 araC::acrEF Pore; assay: as above; settings: for Fold changes of MICs: EKO-35 araC::acrEF Pore compared to EKO-35-Pore; for Minimum inhibitory concentration, EKO-35 araC::acrEF Pore: Table 14A, porinated, technical duplicate
Outline: as §2

[13] = tested on: EKO-35 araC::acrBD408A Pore; assay: as above; settings: for Fold changes of MICs: EKO-35 araC::acrBD408A Pore compared to EKO-35-Pore; for Minimum inhibitory concentration: EKO-35 araC::acrBD408A Pore, technical duplicate
Outline: as §2

[14] = tested on: EKO-35 araC::macAB Pore; assay: as above; settings: for Fold changes of MICs: EKO-35 araC::macAB Pore compared to EKO-35-Pore; for Minimum inhibitory concentration: EKO-35 araC::macAB Pore, technical duplicate
Outline: as §2

[15] = tested on: EKO-35 araC::emrAB Pore; assay: as above; settings: for Fold changes of MICs: EKO-35 araC::emrAB Pore compared to EKO-35-Pore; for Minimum inhibitory concentration: EKO-35 araC::emrAB Pore, technical duplicate
Outline: as §2

[16] = tested on: EKO-35 araC::acrB Pore; assay: as above; settings: for Fold changes of MICs: EKO-35 araC::acr-B Pore compared to EKO-35-Pore
Outline: as §2

[17] = tested on: EKO-35 araC::mdtEF Pore; assay: as above; settings: for Fold changes of MICs: EKO-35 araC::mdtEF Pore compared to EKO-35-Pore; for Minimum inhibitory concentration, EKO-35 araC::mdtEF Pore: Table 14A, porinated, technical duplicate
Outline: as §2

[18] = tested on: EKO-35 araC::mexCD Pore; assay: as above; settings: for Fold changes of MICs: EKO-35 araC::mexCD Pore compared to EKO-35-Pore; for Minimum inhibitory concentration: EKO-35 araC::mexCD Pore, technical duplicate
Outline: as §2

[19] = Table 13B, non-porinated, technical duplicate
[20] = Table 13A, non-porinated, technical duplicate
[21] = Table 14A, porinated, technical duplicate

SMILES	Fold change of MICs [1]	Fold change of MICs [2]	Fold change of MICs [3]	Fold change of MICs [4]	Fold change of MICs [5]	Fold change of MICs [6]	Minimum inhibitory concentration (MIC), Pore ΔtolC [7]	Fold changes of MICs [9]	Fold changes of MICs [10]	Fold changes of MICs [11]	Fold changes of MICs [12]	Fold changes of MICs [13]	Fold changes of MICs [14]	Fold changes of MICs [15]	Fold changes of MICs [16]	Fold changes of MICs [17]	Fold changes of MICs [18]	Minimum Inhibitory Concentration, EKO-35 araC::macAB [1]	Minimum Inhibitory Concentration, EKO-35 araC::mdtEF [2]	Minimum Inhibitory Concentration, EKO-35 araC::emrAB [3]	also measured
COc1cc(Cc2cnc(N)nc2N)cc(OC)c1OC [trimethoprim]	1 fold	2 fold	1 fold	0 fold	4 fold	1 fold	0.049 mg/L	1 fold	2 fold	1 fold	1 fold	1 fold	1 fold	2 fold	4 fold	2 fold	1 fold				MIC ([4]; Escherichia coli, Table 13B, non-porinated, technical duplicate, read-out: Minimum Inhibitory Concentration, EKO-35 araC::acrBD408A): 0.098 mg/L; MIC ([5]; Escherichia coli, Table 13A, non-porinated, technical duplicate, read-out: Minimum Inhibitory Concentration, EKO-35 araC::acrEF): 0.781 mg/L; MIC ([7]; Escherichia coli, 18 h, read-out: Minimum inhibitory concentration, ΔtolC-Pore): 0.049 mg/L; MIC ([8]; read-out: Minimum inhibitory concentration (MIC), Pore K-12): 0.391 mg/L; MIC ([8]; read-out: Minimum inhibitory concentration, K-12 (WT)-Pore): 0.391 mg/L; efflux pump-mediated resistance vs EKO-35-Pore ([12]; AcrEF with the pore): impacted the ability of AcrEF to confer resistance; MIC ([16]; Escherichia coli, Table 14A, porinated, technical duplicate, read-out: Minimum inhibitory concentration, EKO-35 araC::acrB Pore): 0.781 mg/L
N#CC(C#N)=NNc1cccc(Cl)c1 [CCCP]	1 fold	1 fold	4 fold	1 fold	1 fold	1 fold	0.391 mg/L	1 fold	1 fold	2 fold	1 fold	1 fold	1 fold	2 fold	1 fold	1 fold	1 fold	12.5 µg/mL	12.5 µg/mL	50 µg/mL	efflux pump-mediated resistance vs EKO-35 ([3]; EmrAB): conferred resistance; Minimum Inhibitory Concentration, EKO-35 araC::acrBD408A [4, 19]: 12.5 µg/mL; Minimum Inhibitory Concentration, EKO-35 araC::acrEF [5, 20]: 12.5 µg/mL; Minimum Inhibitory Concentration, EKO-35 araC::emrKY [6]: 12.5 µg/mL; Minimum inhibitory concentration, ΔtolC-Pore [7]: 0.391 mg/L; Minimum inhibitory concentration (MIC), Pore K-12 [8]: 12.5 mg/L; Minimum inhibitory concentration, K-12 (WT)-Pore [8]: 12.5 mg/L; Minimum inhibitory concentration, EKO-35 araC::acrD Pore [9]: 6.25 mg/L; Minimum inhibitory concentration [10]: 6.25 mg/L; Minimum inhibitory concentration [11]: 12.5 mg/L; Minimum inhibitory concentration, EKO-35 araC::acrEF Pore [12]: 3.125 mg/L; Minimum inhibitory concentration [13]: 6.25 mg/L; Minimum inhibitory concentration [14]: 6.25 mg/L; Minimum inhibitory concentration [15]: 12.5 mg/L; efflux pump-mediated resistance vs EKO-35-Pore ([15]; EmrAB, porinated strain): no longer provided resistance; Minimum inhibitory concentration, EKO-35 araC::acrB Pore [16, 21]: 6.25 mg/L; Minimum inhibitory concentration, EKO-35 araC::mdtEF Pore [17]: 6.25 mg/L; Minimum inhibitory concentration [18]: 6.25 mg/L
CC(C)c1ccc(C=C(C#N)c2nc3ccccc3[nH]2)cc1 [compound 12]	1 fold	1 fold	1 fold	1 fold	1 fold	1 fold	0.625 mg/L	1 fold	2 fold	2 fold	2 fold	2 fold	2 fold	2 fold	2 fold		2 fold	320 µg/mL	320 µg/mL	320 µg/mL	Minimum Inhibitory Concentration, EKO-35 araC::acrBD408A [4, 19]: 320 µg/mL; Minimum Inhibitory Concentration, EKO-35 araC::acrEF [5, 20]: 320 µg/mL; Minimum Inhibitory Concentration, EKO-35 araC::emrKY [6]: 320 µg/mL; Minimum inhibitory concentration, ΔtolC-Pore [7]: 0.625 mg/L; Minimum inhibitory concentration (MIC), Pore K-12 [8]: 320 mg/L; Minimum inhibitory concentration, K-12 (WT)-Pore [8]: 320 mg/L; Minimum inhibitory concentration, EKO-35 araC::acrD Pore [9]: 160 mg/L; Minimum inhibitory concentration [10]: 320 mg/L; Minimum inhibitory concentration [11]: 320 mg/L; Minimum inhibitory concentration, EKO-35 araC::acrEF Pore [12]: 320 mg/L; Minimum inhibitory concentration [13]: 320 mg/L; Minimum inhibitory concentration [14]: 320 mg/L; Minimum inhibitory concentration [15]: 320 mg/L; Minimum inhibitory concentration, EKO-35 araC::acrB Pore [16, 21]: 320 mg/L; Minimum inhibitory concentration, EKO-35 araC::mdtEF Pore [17]: 320 mg/L; Minimum inhibitory concentration [18]: 320 mg/L
